Experiment: xn = mol fraction of the nth substance listed
Conditions: Gas, isochoric method

[N-]=[N+]=O [nitrous oxide] + O=C=O
Conditions | molar volume [m3/mol]
238.1 K, 1004.5 kPa, x2 = 0.5959 | 0.001705
238.1 K, 1194.6 kPa, x2 = 0.6953 | 0.001286
243.07 K, 1032.4 kPa, x2 = 0.5959 | 0.001705
243.09 K, 1317 kPa, x2 = 0.6953 | 0.001286
248.05 K, 1059.7 kPa, x2 = 0.5959 | 0.001706
248.11 K, 1355.8 kPa, x2 = 0.6953 | 0.001286
253.04 K, 1086.8 kPa, x2 = 0.5959 | 0.001706
253.1 K, 1393.5 kPa, x2 = 0.6953 | 0.001287
258.09 K, 2081.3 kPa, x2 = 0.1499 | 0.000805
258.11 K, 1431.2 kPa, x2 = 0.6953 | 0.001287
263.02 K, 2626.7 kPa, x2 = 0.9071 | 0.000638
263.06 K, 2148.3 kPa, x2 = 0.1499 | 0.000805
263.08 K, 1140.7 kPa, x2 = 0.5959 | 0.001707
263.08 K, 1469 kPa, x2 = 0.6953 | 0.001287
263.09 K, 2245.7 kPa, x2 = 0.2607 | 0.000759
263.1 K, 2436.3 kPa, x2 = 0.4754 | 0.000668
268.02 K, 2719.9 kPa, x2 = 0.9071 | 0.000635
268.03 K, 2212.6 kPa, x2 = 0.1499 | 0.000806
268.04 K, 1168.2 kPa, x2 = 0.5959 | 0.001707
268.05 K, 1505.5 kPa, x2 = 0.6953 | 0.001287
268.08 K, 2515.8 kPa, x2 = 0.4754 | 0.000669
268.08 K, 2813.7 kPa, x2 = 0.3585 | 0.000579
268.08 K, 2907.1 kPa, x2 = 0.7478 | 0.000559
272.93 K, 1194.4 kPa, x2 = 0.5959 | 0.001708
272.93 K, 3330.4 kPa, x2 = 0.6929 | 0.000486
272.94 K, 1541.4 kPa, x2 = 0.6953 | 0.001288
272.95 K, 2909.1 kPa, x2 = 0.3585 | 0.00058
272.98 K, 3090.5 kPa, x2 = 0.0902 | 0.000512
273.04 K, 2808.9 kPa, x2 = 0.9071 | 0.000636
273.05 K, 2384.1 kPa, x2 = 0.2607 | 0.000759
273.06 K, 3007.9 kPa, x2 = 0.7478 | 0.000559
273.07 K, 2593.6 kPa, x2 = 0.4754 | 0.000669
273.12 K, 2276.8 kPa, x2 = 0.1499 | 0.000806
277.82 K, 3196.6 kPa, x2 = 0.0902 | 0.000513
277.86 K, 3791 kPa, x2 = 0.6099 | 0.000401
277.87 K, 3104 kPa, x2 = 0.7478 | 0.000559
277.94 K, 3453.5 kPa, x2 = 0.6929 | 0.000486
282.66 K, 3300.1 kPa, x2 = 0.0902 | 0.000513
282.82 K, 2743.7 kPa, x2 = 0.4754 | 0.000669
282.82 K, 3939.5 kPa, x2 = 0.6099 | 0.000401
282.83 K, 1245.4 kPa, x2 = 0.5959 | 0.001708
282.83 K, 1612.9 kPa, x2 = 0.6953 | 0.001288
282.83 K, 4250.2 kPa, x2 = 0.8378 | 0.00036
282.84 K, 3094.9 kPa, x2 = 0.3585 | 0.00058
282.9 K, 2980 kPa, x2 = 0.9071 | 0.000636
283.01 K, 2401.3 kPa, x2 = 0.1499 | 0.000806
283.01 K, 2518.2 kPa, x2 = 0.2607 | 0.000759
283.01 K, 3203.9 kPa, x2 = 0.7478 | 0.00056
283.01 K, 3574.6 kPa, x2 = 0.6929 | 0.000486
292.79 K, 3511.2 kPa, x2 = 0.0902 | 0.000513
292.89 K, 4229.6 kPa, x2 = 0.6099 | 0.000401
292.97 K, 1685.2 kPa, x2 = 0.6953 | 0.001289
292.97 K, 2524.4 kPa, x2 = 0.1499 | 0.000806
292.98 K, 1297.8 kPa, x2 = 0.5959 | 0.001709
292.98 K, 3279.6 kPa, x2 = 0.3585 | 0.00058
292.99 K, 3397 kPa, x2 = 0.7478 | 0.00056
292.99 K, 4597 kPa, x2 = 0.8378 | 0.00036
293.06 K, 2897.6 kPa, x2 = 0.4754 | 0.000669
293.06 K, 3153.2 kPa, x2 = 0.9071 | 0.000636
293.06 K, 3809.7 kPa, x2 = 0.6929 | 0.000486
293.11 K, 2651.8 kPa, x2 = 0.2607 | 0.00076
297.92 K, 4370.8 kPa, x2 = 0.6099 | 0.000401
298.04 K, 1323.7 kPa, x2 = 0.5959 | 0.001709
298.04 K, 2970.8 kPa, x2 = 0.4754 | 0.000669
298.04 K, 3235.8 kPa, x2 = 0.9071 | 0.000636
298.04 K, 3923.4 kPa, x2 = 0.6929 | 0.000486
298.05 K, 3617.5 kPa, x2 = 0.0902 | 0.000513
298.06 K, 3490.8 kPa, x2 = 0.7478 | 0.00056
299.02 K, 4795.1 kPa, x2 = 0.8378 | 0.00036
302.04 K, 2647.7 kPa, x2 = 0.1499 | 0.000807
303.02 K, 3458.7 kPa, x2 = 0.3585 | 0.00058
303.13 K, 2781.5 kPa, x2 = 0.2607 | 0.00076
307.87 K, 4646.1 kPa, x2 = 0.6099 | 0.000401
307.97 K, 3546.3 kPa, x2 = 0.3585 | 0.00058
308 K, 1375.9 kPa, x2 = 0.5959 | 0.00171
308 K, 1790.6 kPa, x2 = 0.6953 | 0.00129
308 K, 4148.1 kPa, x2 = 0.6929 | 0.000486
308.01 K, 3399.4 kPa, x2 = 0.9071 | 0.000637
308.02 K, 3818.3 kPa, x2 = 0.0902 | 0.000513
308.03 K, 3676.1 kPa, x2 = 0.7478 | 0.00056
308.07 K, 2845 kPa, x2 = 0.2607 | 0.00076
308.09 K, 5087.6 kPa, x2 = 0.8378 | 0.00036
308.13 K, 3117.6 kPa, x2 = 0.4754 | 0.00067
312.22 K, 2766.9 kPa, x2 = 0.1499 | 0.000807
317.84 K, 4915.4 kPa, x2 = 0.6099 | 0.000401
318.01 K, 2971.6 kPa, x2 = 0.2607 | 0.000761
318.02 K, 5401.8 kPa, x2 = 0.8378 | 0.000361
318.04 K, 3722.1 kPa, x2 = 0.3585 | 0.000581
318.05 K, 4013.5 kPa, x2 = 0.0902 | 0.000513
318.11 K, 1427.6 kPa, x2 = 0.5959 | 0.001711
318.11 K, 3261.7 kPa, x2 = 0.4754 | 0.00067
318.12 K, 1861.3 kPa, x2 = 0.6953 | 0.00129
318.12 K, 3563 kPa, x2 = 0.9071 | 0.000637
318.12 K, 4371.8 kPa, x2 = 0.6929 | 0.000486
318.13 K, 3860.5 kPa, x2 = 0.7478 | 0.00056
322.91 K, 5554.6 kPa, x2 = 0.8378 | 0.000361
323.11 K, 2885.7 kPa, x2 = 0.1499 | 0.000807
323.12 K, 5055.4 kPa, x2 = 0.6099 | 0.000401
327.94 K, 3893.1 kPa, x2 = 0.3585 | 0.000581
327.98 K, 3097.5 kPa, x2 = 0.2607 | 0.000761
328 K, 5712 kPa, x2 = 0.8378 | 0.000361
328.09 K, 1478.4 kPa, x2 = 0.5959 | 0.001712
328.09 K, 3404 kPa, x2 = 0.4754 | 0.00067
328.1 K, 1930.7 kPa, x2 = 0.6953 | 0.001291
328.1 K, 3722.5 kPa, x2 = 0.9071 | 0.000637
328.1 K, 4040.6 kPa, x2 = 0.7478 | 0.000561
328.1 K, 4589.4 kPa, x2 = 0.6929 | 0.000487
328.11 K, 4212.5 kPa, x2 = 0.0902 | 0.000514
328.11 K, 5188.2 kPa, x2 = 0.6099 | 0.000402
333.09 K, 3003.3 kPa, x2 = 0.1499 | 0.000808
333.1 K, 5868.1 kPa, x2 = 0.8378 | 0.000361
338.03 K, 4402.1 kPa, x2 = 0.0902 | 0.000514
338.07 K, 1529 kPa, x2 = 0.5959 | 0.001712
338.07 K, 4218.4 kPa, x2 = 0.7478 | 0.000561
338.07 K, 4804.3 kPa, x2 = 0.6929 | 0.000487
338.08 K, 1999.6 kPa, x2 = 0.6953 | 0.001291
338.08 K, 3880.7 kPa, x2 = 0.9071 | 0.000637
338.08 K, 4065.8 kPa, x2 = 0.3585 | 0.000581
338.09 K, 3223.8 kPa, x2 = 0.2607 | 0.000761
338.09 K, 5449.4 kPa, x2 = 0.6099 | 0.000402
338.11 K, 3545.6 kPa, x2 = 0.4754 | 0.000671
343.08 K, 3119.8 kPa, x2 = 0.1499 | 0.000808
343.08 K, 5578.9 kPa, x2 = 0.6099 | 0.000402
348.02 K, 4592.8 kPa, x2 = 0.0902 | 0.000514
348.05 K, 3346.9 kPa, x2 = 0.2607 | 0.000762
348.05 K, 3684.7 kPa, x2 = 0.4754 | 0.000671
348.06 K, 1579.5 kPa, x2 = 0.5959 | 0.001713
348.06 K, 2068.1 kPa, x2 = 0.6953 | 0.001292
348.06 K, 4036.9 kPa, x2 = 0.9071 | 0.000638
348.06 K, 4394.9 kPa, x2 = 0.7478 | 0.000561
348.06 K, 5017.1 kPa, x2 = 0.6929 | 0.000487
348.07 K, 4234.7 kPa, x2 = 0.3585 | 0.000582
353.04 K, 3235.1 kPa, x2 = 0.1499 | 0.000809
357.91 K, 4567 kPa, x2 = 0.7478 | 0.000561
357.95 K, 2135.6 kPa, x2 = 0.6953 | 0.001293
357.99 K, 1629.5 kPa, x2 = 0.5959 | 0.001714
357.99 K, 5226.8 kPa, x2 = 0.6929 | 0.000487
358.02 K, 3469.7 kPa, x2 = 0.2607 | 0.000762
358.02 K, 3823.2 kPa, x2 = 0.4754 | 0.000671
358.03 K, 4191.9 kPa, x2 = 0.9071 | 0.000638
358.04 K, 3292.6 kPa, x2 = 0.1499 | 0.000809
358.04 K, 4401.6 kPa, x2 = 0.3585 | 0.000582
